Numbered stars: 1 amine (or outer) side, 2 acyl side, 3 side chain; on linkers, the order of the positions; unused ones are H or OH. Square brackets hold non-standard residues; d marks the D form. Peptide text beside a SMILES is read from it. * marks the point of attachment. Heptanedioyl = O=C(CCCCCC(=O)[*:2])[*:1]; NMeNle = CCCC[C@H](NC)C(=O)O; Malonamoyl = NC(=O)CC(=O)*; Methoxyacetyl = COCC(=O)*; Isobutyryl = CC(C)C(=O)*; X3 = O=C(CS(=O)(=O)O)*; Boc = CC(C)(C)OC(=O)*; X2 = COC(=O)CC(=O)*; X4 = CC(=O)CC(=O)*; βAla = NCCC(=O)O
biological target: Gastrin/cholecystokinin type B receptor (Cavia porcellus); test: Binding affinity against cholecystokinin type B receptor on guinea pig cortex.

In order of falling Ki:
1. CCCC[C@@H](C(=O)N[C@@H](CC(=O)O)C(=O)N[C@@H](Cc1ccccc1)C(N)=O)N(C)C(=O)[C@H](Cc1c[nH]c2ccccc12)NC(=O)CCCCCC(=O)O [6-[1-({1-[1-(1-Carbamoyl-2-phenyl-ethylcarbamoyl)-2-carboxy-ethylcarbamoyl]-pentyl}-methyl-carbamoyl)-2-(1H-indol-3-yl)-ethylcarbamoyl]-hexanoic acid] (Heptanedioyl-W[NMeNle]DF-NH2)  992 nM
2. CCCC[C@@H](C(=O)N[C@@H](CC(=O)O)C(=O)N[C@@H](Cc1ccccc1)C(N)=O)N(C)C(=O)[C@H](Cc1c[nH]c2ccccc12)NC(=O)CCN [3-(2-{[2-(3-Amino-propionylamino)-3-(1H-indol-3-yl)-propionyl]-methyl-amino}-hexanoylamino)-N-(1-carbamoyl-2-phenyl-ethyl)-succinamic acid] (H-[βAla]W[NMeNle]DF-NH2)  95 nM
3. CCCC[C@@H](C(=O)N[C@@H](CC(=O)O)C(=O)N[C@@H](Cc1ccccc1)C(N)=O)N(C)C(=O)[C@H](Cc1c[nH]c2ccccc12)NC(=O)[C@H](C)N [3-(2-{[2-(2-Amino-propionylamino)-3-(1H-indol-3-yl)-propionyl]-methyl-amino}-hexanoylamino)-N-(1-carbamoyl-2-phenyl-ethyl)-succinamic acid]  20 nM
4. CCCC[C@@H](C(=O)N[C@@H](CC(=O)O)C(=O)N[C@@H](Cc1ccccc1)C(N)=O)N(C)C(=O)[C@H](Cc1c[nH]c2ccccc12)NC(=O)CC(C)=O [N-(1-Carbamoyl-2-phenyl-ethyl)-3-(2-{[3-(1H-indol-3-yl)-2-(3-oxo-butyrylamino)-propionyl]-methyl-amino}-hexanoylamino)-succinamic acid] (X4-W[NMeNle]DF-NH2)  3.84 nM
5. CCCC[C@@H](C(=O)N[C@@H](CC(=O)O)C(=O)N[C@@H](Cc1ccccc1)C(N)=O)N(C)C(=O)[C@H](Cc1c[nH]c2ccccc12)NC(=O)CC(=O)OC [N-(1-Carbamoyl-2-phenyl-ethyl)-3-(2-{[3-(1H-indol-3-yl)-2-(2-methoxycarbonyl-acetylamino)-propionyl]-methyl-amino}-hexanoylamino)-succinamic acid] (X2-W[NMeNle]DF-NH2)  3.61 nM
6. CCCC[C@@H](C(=O)N[C@@H](CC(=O)O)C(=O)N[C@@H](Cc1ccccc1)C(N)=O)N(C)C(=O)[C@@H](N)Cc1c[nH]c2ccccc12 [3-(2-{[2-Amino-3-(1H-indol-3-yl)-propionyl]-methyl-amino}-hexanoylamino)-N-(1-carbamoyl-2-phenyl-ethyl)-succinamic acid] (H-W[NMeNle]DF-NH2)  2.6 nM
7. CCCC[C@@H](C(=O)N[C@@H](CC(=O)O)C(=O)N[C@@H](Cc1ccccc1)C(N)=O)N(C)C(=O)[C@H](Cc1c[nH]c2ccccc12)NC(=O)COC [N-(1-Carbamoyl-2-phenyl-ethyl)-3-(2-{[3-(1H-indol-3-yl)-2-(2-methoxy-acetylamino)-propionyl]-methyl-amino}-hexanoylamino)-succinamic acid] (Methoxyacetyl-W[NMeNle]DF-NH2)  2.52 nM
8. CCCC[C@@H](C(=O)N[C@@H](CC(=O)O)C(=O)N[C@@H](Cc1ccccc1)C(N)=O)N(C)C(=O)[C@H](Cc1c[nH]c2ccccc12)NC(=O)CC(N)=O [3-(2-{[2-(2-Carbamoyl-acetylamino)-3-(1H-indol-3-yl)-propionyl]-methyl-amino}-hexanoylamino)-N-(1-carbamoyl-2-phenyl-ethyl)-succinamic acid] (Malonamoyl-W[NMeNle]DF-NH2)  2.05 nM
9. CCCC[C@@H](C(=O)N[C@@H](CC(=O)O)C(=O)N[C@@H](Cc1ccccc1)C(N)=O)N(C)C(=O)[C@H](Cc1c[nH]c2ccccc12)NC(=O)C(C)C [N-(1-Carbamoyl-2-phenyl-ethyl)-3-(2-{[3-(1H-indol-3-yl)-2-isobutyrylamino-propionyl]-methyl-amino}-hexanoylamino)-succinamic acid] (Isobutyryl-W[NMeNle]DF-NH2)  1.37 nM
10. CCCC[C@@H](C(=O)N[C@@H](CC(=O)O)C(=O)N[C@@H](Cc1ccccc1)C(N)=O)N(C)C(=O)[C@H](Cc1c[nH]c2ccccc12)NC(=O)CCNC(=O)OC(C)(C)C [3-(2-{[2-(3-tert-Butoxycarbonylamino-propionylamino)-3-(1H-indol-3-yl)-propionyl]-methyl-amino}-hexanoylamino)-N-(1-carbamoyl-2-phenyl-ethyl)-succinamic acid] ({Boc-βAla}-W[NMeNle]DF-NH2)  1.35 nM
11. CCCC[C@@H](C(=O)N[C@@H](CC(=O)O)C(=O)N[C@@H](Cc1ccccc1)C(N)=O)N(C)C(=O)[C@H](Cc1c[nH]c2ccccc12)NC(=O)CS(=O)(=O)O [N-(1-Carbamoyl-2-phenyl-ethyl)-3-(2-{[3-(1H-indol-3-yl)-2-(2-sulfo-acetylamino)-propionyl]-methyl-amino}-hexanoylamino)-succinamic acid] (X3-W[NMeNle]DF-NH2)  0.54 nM

From BindingDB's records for doi:10.1021/jm0000416 (University of Paris, 2000)
